Assay [1] concerns the target T1, Toll-like receptor 4 (Mus musculus) (UniProt Q9QUK6).
T1 sequence (whole entry): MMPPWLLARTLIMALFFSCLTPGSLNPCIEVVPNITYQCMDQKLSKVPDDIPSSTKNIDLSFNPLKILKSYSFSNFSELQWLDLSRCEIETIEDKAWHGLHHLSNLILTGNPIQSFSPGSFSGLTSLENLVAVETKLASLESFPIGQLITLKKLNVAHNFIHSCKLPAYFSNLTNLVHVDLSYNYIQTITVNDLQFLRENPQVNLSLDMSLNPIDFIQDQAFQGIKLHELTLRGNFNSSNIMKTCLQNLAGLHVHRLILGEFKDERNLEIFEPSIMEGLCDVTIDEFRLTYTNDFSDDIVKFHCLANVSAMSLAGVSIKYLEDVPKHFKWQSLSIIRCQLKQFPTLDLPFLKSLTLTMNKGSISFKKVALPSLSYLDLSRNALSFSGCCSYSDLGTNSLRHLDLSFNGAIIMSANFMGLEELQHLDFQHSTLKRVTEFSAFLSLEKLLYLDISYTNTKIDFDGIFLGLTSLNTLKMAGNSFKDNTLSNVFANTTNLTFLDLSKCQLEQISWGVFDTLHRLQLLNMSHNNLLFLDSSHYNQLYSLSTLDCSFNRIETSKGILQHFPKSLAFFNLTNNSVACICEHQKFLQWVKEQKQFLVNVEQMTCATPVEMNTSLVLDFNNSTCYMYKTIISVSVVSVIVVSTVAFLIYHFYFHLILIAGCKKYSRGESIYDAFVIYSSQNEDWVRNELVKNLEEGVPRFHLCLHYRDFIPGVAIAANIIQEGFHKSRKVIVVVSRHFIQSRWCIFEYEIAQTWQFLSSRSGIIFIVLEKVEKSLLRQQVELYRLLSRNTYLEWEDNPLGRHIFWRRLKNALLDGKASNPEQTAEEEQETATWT
The assay is described as follows: Inhibition of LPS binding to TLR4 in IFNgamma-stimulated mouse RAW264.7 cells assessed as reduction in nitric oxide production at 25 to 100 uM pretreated for 2 hrs followed by LPS/IFNgamma stimulation and measured after 24 hrs. The class given is cell-based.

The target in assay [2] is T1, Toll-like receptor 4 (Mus musculus). The assay is described as follows: Inhibition of LPS binding to TLR4 in IFNgamma-stimulated mouse RAW264.7 cells assessed as reduction in nitric oxide production pretreated for 2 hrs followed by LPS/IFNgamma stimulation and measured after 24 hrs. The class given is cell-based.

These results are taken from ChEMBL document CHEMBL4261619, “Sentulic acid isolated from Sandoricum koetjape Merr attenuates lipopolysaccharide and interferon gamma co-stimulated nitric oxide production in murine macrophage RAW264 cells” (Bioorg Med Chem Lett, 2018).

Active and inactive are the calls of the source. No cut-off for these calls is given here.

Turning to `C=C(C)[C@@H]1CC[C@]2(C(=O)O)CC[C@]3(C)[C@H](CC[C@@H]4[C@@]5(C)CC[C@H](O)C(C)(C)[C@@H]5CC[C@]43C)[C@@H]12`, in assay [1], the inhibition result was “inactive”. As to `CC1(C)CC[C@]2(C(=O)O)CC[C@]3(C)C(=CC[C@@H]4[C@@]5(C)CC[C@H](O)C(C)(C)[C@@H]5CC[C@]43C)[C@@H]2C1`, the inhibition entry in assay [1] was “inactive”.

Regarding `CC1(C)CC[C@]2(C)CC[C@]3(C(=O)O)C(=CC[C@@H]4[C@@]5(C)CCC(=O)C(C)(C)[C@@H]5CC[C@]43C)[C@@H]2C1`, the inhibition result in assay [1] is “inactive”. Consider `C[C@H]1[C@H](C)CC[C@]2(C(=O)O)CC[C@]3(C)C(=CC[C@@H]4[C@@]5(C)CC[C@H](O)C(C)(C)[C@@H]5CC[C@]43C)[C@H]12`, for which the inhibition entry in assay [2] is “Dose-dependent effect”. `CC1(C)[C@@H](O)CC[C@]2(C)[C@H]3C(=O)C=C4[C@@H]5C[C@@](C)(C(=O)O)CC[C@]5(C)CC[C@@]4(C)[C@]3(C)CC[C@@H]12`: the inhibition result in assay [1] is “inactive”.
